According to US10167293B2, “[8-(phenylsulfonyl)-3,8-diazabicyclo[3.2.1]oct-3-yl](1H-1,2,3-triazol-4-yl)methanones” (BAYER PHARMA AKTIENGESELLSCHAFT, priority 2016, dated 2019):

Target: recombinant human AKR1C3 (Homo sapiens (Human), UniProt P42330)
Assay: AKR1C3-inhibitory activity assay (Coumberone to Coumberol fluorescence)
Assay type: biochemical
Conditions: recombinant human AKR1C3, 15 min pre-incubation, 10 μM NADPH, 0.3 μM Coumberone
Description: The AKR1C3-inhibitory activity of the substances of the present invention was measured in the AKR1C3 assay described in the paragraphs below.
Essentially, the enzyme activity is measured by quantification of the generation of Coumberol from Coumberone (Halim et al. J. AM. CHEM. SOC. 2008, 130:14123-14128 and Yee et al. Proc. Natl. Acad. Sci. USA 2006, 103:13304-13309). In this test, the increase of the highly fluorescent Coumberol by NADPH—(nicotinamide adenine dinucleotide phosphate)-dependent reduction of the non-fluorescent Coumberone by AKR1C3 was determined.
The enzyme used was recombinant human AKR1C3 (Aldo-keto reductase family 1 member C3; GenBank Accession No. NM_003739). This was expressed in E. coli as GST (glutathione S transferase) fusion protein and purified by glutathione Sepharose affinity chromatography. The GST was removed by digestion with thrombin and subsequent size exclusion chromatography (Dufort, I., Rheault, P., Huang, X F., Soucy, P., and Luu-The, V., Endocrinology 140, 568-574 (1999)).
For the assay, 50 nl of a 100-fold concentrated solution of the test substance in DMSO were pipetted into a black low-volume 384-well microtiter plate (Greiner Bio-One, Frickenhausen, Germany), 2.5 μl of a solution of AKR1C3 in assay buffer [50 mM potassium phosphate buffer pH 7, 1 mM DTT, 0.0022% (w/v) Pluronic F-127, 0.01% BSA (w/v) and protease inhibitor cocktail (Complete, EDTA-free Protease Inhibitor Cocktail from Roche)] were added and the mixture was incubated for 15 min to allow pre-binding of the substances to the enzyme prior to the enzyme reaction. The enzyme reaction was then started by addition of 2.5 μl of a solution of NADPH (20 μM→final concentration in 5 μl of assay volume is 10 μM) and Coumberone (0.6 μM→final concentration in 5 μl of assay volume is 0.3 μM) in assay buffer, and the resulting mixture was incubated at 22° C. for the reaction time of typically 90 min. The concentration of the AKR1C3 and the reaction time was adapted to the respective activity of the enzyme preparation and adjusted such that the assay was carried out in the linear range. Typical AKR1C3 concentrations were in the region of 1 nM. The reaction was stopped by addition of 2.5 μl of a stop solution consisting of 3 μM EM-1404 as inhibitor (U.S. Pat. No. 6,541,463) in 50 mM HEPES pH7.5 (3 μM EM-1404→final concentration in 7.5 μl of assay volume is 1 μM). The fluorescence of the Coumberole was then measured at 520 nm (excitation at 380 nm) using a suitable measuring instrument (Pherastar from BMG Labtechnologies). The intensity of the fluorescence was used as a measure of the amount of Coumberole formed and thus of the enzyme activity of AKR1C3. The data were normalized (enzyme reaction without inhibitor=0% inhibition; all other assay components, but no enzyme=100% inhibition).

Chain of recombinant human AKR1C3 (P42330 whole entry): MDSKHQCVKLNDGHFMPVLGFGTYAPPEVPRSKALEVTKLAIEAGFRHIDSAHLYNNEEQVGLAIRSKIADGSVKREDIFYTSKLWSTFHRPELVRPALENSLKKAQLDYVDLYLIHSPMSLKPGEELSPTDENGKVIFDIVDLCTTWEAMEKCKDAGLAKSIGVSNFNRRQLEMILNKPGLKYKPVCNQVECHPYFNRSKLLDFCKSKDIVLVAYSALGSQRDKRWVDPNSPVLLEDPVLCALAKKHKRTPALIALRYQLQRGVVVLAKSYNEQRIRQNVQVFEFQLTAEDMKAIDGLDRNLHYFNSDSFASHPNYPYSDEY

SMILES	IC50 [nM]
O=C(c1cnn[nH]1)N1CC2CCC(C1)N2S(=O)(=O)c1cccc(Br)c1 [Example 31, {8-[(3-bromophenyl)sulfonyl]-3,8-diazabicyclo[3.2.1]oct-3-yl}(1H-1,2,3-triazol-5-yl)methanone]	0.5
O=C(c1cnn[nH]1)N1CC2CCC(C1)N2S(=O)(=O)c1ccccc1OC(F)(F)F [Example 42, 1H-1,2,3-triazol-5-yl[8-{[2-(trifluoromethoxy)phenyl]sulfonyl}-3,8-diazabicyclo[3.2.1]oct-3-yl]methanone]	1.1
CCc1ccc(S(=O)(=O)N2C3CCC2CN(C(=O)c2cnn[nH]2)C3)cc1 [Example 49, {8-[(4-ethylphenyl)sulfonyl]-3,8-diazabicyclo[3.2.1]oct-3-yl}(1H-1,2,3-triazol-5-yl)methanone]	1.2
O=C(c1cnn[nH]1)N1CC2CCC(C1)N2S(=O)(=O)c1ccc(Br)cc1 [Example 38, {8-[(4-bromophenyl)sulfonyl]-3,8-diazabicyclo[3.2.1]oct-3-yl}(1H-1,2,3-triazol-5-yl)methanone]	1.5
O=C(c1c[nH]nn1)N1CC2CCC(C1)N2S(=O)(=O)c1cc(C(F)(F)F)cc(C(F)(F)F)c1 [Example 10]	7.3
O=C(c1cnn[nH]1)N1CC2CCC(C1)N2S(=O)(=O)c1ccc(Cl)cc1 [Example 22, {8-[(4-chlorophenyl)sulfonyl]-3,8-diazabicyclo[3.2.1]oct-3-yl}(1H-1,2,3-triazol-5-yl)methanone]	1.5
N#Cc1cc(S(=O)(=O)N2C3CCC2CN(C(=O)c2cnn[nH]2)C3)ccc1F [Example 60, 2-fluoro-5-{[3-(1H-1,2,3-triazol-5-ylcarbonyl)-3,8-diazabicyclo[3.2.1]oct-8-yl]sulfonyl}benzonitrile]	28.4
Cc1ccc(Br)cc1S(=O)(=O)N1C2CCC1CN(C(=O)c1cnn[nH]1)C2 [Example 65, {8-[(5-bromo-2-methylphenyl)sulfonyl]-3,8-diazabicyclo[3.2.1]oct-3-yl}(1H-1,2,3-triazol-5-yl)methanone]	0.5
O=C(c1c[nH]nn1)N1CC2CCC(C1)N2S(=O)(=O)c1ccccc1 [Example 1, [8-(phenylsulfonyl)-3,8-diazabicyclo[3.2.1]oct-3-yl](1H-1,2,3-triazol-4-yl)methanone]	3.7
O=C(c1cnn[nH]1)N1CC2CCC(C1)N2S(=O)(=O)c1cccc2cccnc12 [Example 40, [8-(quinolin-8-ylsulfonyl)-3,8-diazabicyclo[3.2.1]oct-3-yl](1H-1,2,3-triazol-5-yl)methanone]	3.4
O=C(c1cnn[nH]1)N1CC2CCC(C1)N2S(=O)(=O)c1cc(F)cc(F)c1 [Example 75, sodium 5-({8-[(3,5-difluorophenyl)sulfonyl]-3,8-diazabicyclo[3.2.1]oct-3-yl}carbonyl)-1,2,3-triazol-1-ide]	0.7
COc1ccc(OC)c(S(=O)(=O)N2C3CCC2CN(C(=O)c2cnn[nH]2)C3)c1 [Example 47, {8-[(2,5-dimethoxyphenyl)sulfonyl]-3,8-diazabicyclo[3.2.1]oct-3-yl}(1H-1,2,3-triazol-5-yl)methanone]	29.8
O=C(c1cnn[nH]1)N1CC2CCC(C1)N2S(=O)(=O)c1cccc(C(F)(F)F)c1 [Example 29, 1H-1,2,3-triazol-5-yl[8-{[3-(trifluoromethyl)phenyl]sulfonyl}-3,8-diazabicyclo[3.2.1]oct-3-yl]methanone]	0.9
O=C(c1cnn[nH]1)N1CC2CCC(C1)N2S(=O)(=O)c1ccc2c(c1)OCO2 [Example 66, [8-(1,3-benzodioxol-5-ylsulfonyl)-3,8-diazabicyclo[3.2.1]oct-3-yl](1H-1,2,3-triazol-5-yl)methanone]	0.9
O=C(c1cnn[nH]1)N1CC2CCC(C1)N2S(=O)(=O)c1ccc(F)c(Cl)c1 [Example 28, {8-[(3-chloro-4-fluorophenyl)sulfonyl]-3,8-diazabicyclo[3.2.1]oct-3-yl}(1H-1,2,3-triazol-5-yl)methanone]	1.2
N#Cc1ccccc1S(=O)(=O)N1C2CCC1CN(C(=O)c1cnn[nH]1)C2 [Example 35, 2-{[3-(1H-1,2,3-triazol-5-ylcarbonyl)-3,8-diazabicyclo[3.2.1]oct-8-yl]sulfonyl}benzonitrile]	6
O=C(c1cnn[nH]1)N1CC2CCC(C1)N2S(=O)(=O)c1ccc([N+](=O)[O-])cc1 [Example 43, {8-[(4-nitrophenyl)sulfonyl]-3,8-diazabicyclo[3.2.1]oct-3-yl}(1H-1,2,3-triazol-5-yl)methanone]	9.1
Cc1cc(C)cc(S(=O)(=O)N2C3CCC2CN(C(=O)c2cnn[nH]2)C3)c1 [Example 18, {8-[(3,5-dimethylphenyl)sulfonyl]-3,8-diazabicyclo[3.2.1]oct-3-yl}(1H-1,2,3-triazol-5-yl)methanone]	1
COc1cc(C)ccc1S(=O)(=O)N1C2CCC1CN(C(=O)c1cnn[nH]1)C2 [Example 67, {8-[(2-methoxy-4-methylphenyl)sulfonyl]-3,8-diazabicyclo[3.2.1]oct-3-yl}(1H-1,2,3-triazol-5-yl)methanone]	1
COc1ccccc1S(=O)(=O)N1C2CCC1CN(C(=O)c1cnn[nH]1)C2 [Example 64, {8-[(2-methoxyphenyl)sulfonyl]-3,8-diazabicyclo[3.2.1]oct-3-yl}(1H-1,2,3-triazol-5-yl)methanone]	1.3
O=C(c1cnn[nH]1)N1CC2CCC(C1)N2S(=O)(=O)c1cccc(F)c1 [Example 4, {8-[(3-fluorophenyl)sulfonyl]-3,8-diazabicyclo[3.2.1]oct-3-yl}(1H-1,2,3-triazol-5-yl)methanone]	1.2
N#Cc1cccc(S(=O)(=O)N2C3CCC2CN(C(=O)c2cnn[nH]2)C3)c1 [Example 17, 3-{[3-(1H-1,2,3-triazol-5-ylcarbonyl)-3,8-diazabicyclo[3.2.1]oct-8-yl]sulfonyl}benzonitrile]	2.9
Cc1cc(C)c(S(=O)(=O)N2C3CCC2CN(C(=O)c2cnn[nH]2)C3)c(C)c1 [Example 45, 1H-1,2,3-triazol-5-yl{8-[(2,4,6-trimethylphenyl)sulfonyl]-3,8-diazabicyclo[3.2.1]oct-3-yl}methanone]	1.4
Cc1cccc(Cl)c1S(=O)(=O)N1C2CCC1CN(C(=O)c1cnn[nH]1)C2 [Example 51, {8-[(2-chloro-6-methylphenyl)sulfonyl]-3,8-diazabicyclo[3.2.1]oct-3-yl}(1H-1,2,3-triazol-5-yl)methanone]	0.8
Cc1cccc(S(=O)(=O)N2C3CCC2CN(C(=O)c2cnn[nH]2)C3)c1 [Example 13, {8-[(3-methylphenyl)sulfonyl]-3,8-diazabicyclo[3.2.1]oct-3-yl}(1H-1,2,3-triazol-5-yl)methanone]	1.4
O=C(c1cnn[nH]1)N1CC2CCC(C1)N2S(=O)(=O)c1cc(F)cc(F)c1 [Example 3, {8-[(3,5-difluorophenyl)sulfonyl]-3,8-diazabicyclo[3.2.1]oct-3-yl}(1H-1,2,3-triazol-5-yl)methanone]	1.4
Cc1c(Cl)cccc1S(=O)(=O)N1C2CCC1CN(C(=O)c1cnn[nH]1)C2 [Example 26, {8-[(3-chloro-2-methylphenyl)sulfonyl]-3,8-diazabicyclo[3.2.1]oct-3-yl}(1H-1,2,3-triazol-5-yl)methanone]	1.1
Cc1ccc(S(=O)(=O)N2C3CCC2CN(C(=O)c2cnn[nH]2)C3)cc1 [Example 14, {8-[(4-methylphenyl)sulfonyl]-3,8-diazabicyclo[3.2.1]oct-3-yl}(1H-1,2,3-triazol-5-yl)methanone]	1.9
O=C(c1cnn[nH]1)N1CC2CCC(C1)N2S(=O)(=O)c1cc(Cl)ccc1Cl [Example 30, {8-[(2,5-dichlorophenyl)sulfonyl]-3,8-diazabicyclo[3.2.1]oct-3-yl}(1H-1,2,3-triazol-5-yl)methanone]	0.6
O=C(c1c[nH]nn1)N1CC2CCC(C1)N2S(=O)(=O)c1cccc(S(F)(F)(F)(F)F)c1 [Example 8, [8-{[3-(pentafluoro-lambda^6-sulfanyl)phenyl]sulfonyl}-3,8-diazabicyclo[3.2.1]oct-3-yl](1H-1,2,3-triazol-4-yl)methanone]	1.3
